Data published in patent publication US20040063662A1, “Selenophene anti-tumor agents” (priority 1996, published 2004).

Experiments:
HL-60(TB) = test: NCI human tumor cell panel: HL-60(TB) (Leukemia); type: cell-based
SR = test: NCI human tumor cell panel: SR (Leukemia); type: cell-based
EKVX = test: NCI human tumor cell panel: EKVX (Non-Small Cell Lung Cancer); type: cell-based
HOP-62 = test: NCI human tumor cell panel: HOP-62 (Non-Small Cell Lung Cancer); type: cell-based; conditions: HOP-62, read-out: Log10 TGI (converted)
NCI-H226 = test: NCI human tumor cell panel: NCI-H226 (Non-Small Cell Lung Cancer); type: cell-based
NCI-H23 = test: NCI human tumor cell panel: NCI-H23 (Non-Small Cell Lung Cancer); type: cell-based
NCI-H322M = test: cells; type: cell-based; conditions: Homo sapiens
COLO 205 = test: NCI human tumor cell panel: COLO 205 (Colon Cancer); type: cell-based; conditions: COLO 205, read-out: Log10 GI50 (converted)
HCT-15 = test: NCI human tumor cell panel: HCT-15 (Colon Cancer); type: cell-based
HT29 = test: NCI human tumor cell panel: HT29 (Colon Cancer); type: cell-based; conditions: HT-29, HT29, read-out: Log10 TGI (converted)
KM12 = test: NCI human tumor cell panel: KM12 (Colon Cancer); type: cell-based
SW-620 = test: NCI human tumor cell panel: SW-620 (Colon Cancer); type: cell-based
SF-268 = test: NCI human tumor cell panel: SF-268 (CNS Cancer); type: cell-based
SF-539 = test: NCI human tumor cell panel: SF-539 (CNS Cancer); type: cell-based
MALME-3M = test: NCI human tumor cell panel: MALME-3M (Melanoma); type: cell-based; conditions: Malme-3M, read-out: Log10 GI50 (converted)
SK-MEL-2 = test: NCI human tumor cell panel: SK-MEL-2 (Melanoma); type: cell-based
SK-MEL-28 = test: NCI human tumor cell panel: SK-MEL-28 (Melanoma); type: cell-based
UACC-62 = test: NCI human tumor cell panel: UACC-62 (Melanoma); type: cell-based
OVCAR-4 = test: NCI human tumor cell panel: OVCAR-4 (Ovarian Cancer); type: cell-based; conditions: OVCAR-4, read-out: Log10 TGI (converted)
OVCAR-5 = test: NCI human tumor cell panel: OVCAR-5 (Ovarian Cancer); type: cell-based
SK-OV-3 = test: NCI human tumor cell panel: SK-OV-3 (Ovarian Cancer); type: cell-based
A498 = test: NCI human tumor cell panel: A498 (Renal Cancer); type: cell-based
CAKI-1 = test: NCI human tumor cell panel: CAKI-1 (Renal Cancer); type: cell-based
RXF-393 = test: NCI human tumor cell panel: RXF-393 (Renal Cancer); type: cell-based
SN12C = test: NCI human tumor cell panel: SN12C (Renal Cancer); type: cell-based
MDA-MB-231/ATCC = test: NCI human tumor cell panel: MDA-MB-231/ATCC (Breast Cancer); type: cell-based; conditions: Homo sapiens, MDA-MB-231, MDA-MB-231/ATCC
T-47D = test: NCI human tumor cell panel: T-47D (Breast Cancer); type: cell-based; conditions: T47D
NCI-H522 = test: NCI human tumor cell panel: NCI-H522 (Non-Small Cell Lung Cancer)
[1] = system: panel of sixty different human tumor cell lines; test: NCI human tumor cell panel: whole panel (mean graph summary)
[2] = read-out: Log10 GI50 (converted)
[3] = read-out: Log10 TGI (converted)

For `OCc1ccc(-c2ccc(-c3ccc[se]3)s2)[se]1` [compound 676631], the GI50 (HL-60(TB); [2]) was greater than 100 µM, the IC (TGI) (HL-60(TB); read-out: Log10 TGI) was greater than 100 µM and the GI50 (SR; [2]) was greater than 100 µM. The IC (TGI) (SR; [3]) was greater than 100 µM, the GI50 (EKVX; [2]) was greater than 100 µM and the IC (TGI) (EKVX; [3]) was greater than 100 µM. The IC (TGI) (HOP-62) was greater than 100 µM, the GI50 (NCI-H226; NCI-H226, read-out: Log10 GI50 (converted)) was 0.0501 µM and the IC (TGI) (NCI-H226; NCI-H226, read-out: Log10 TGI (converted)) was 0.182 µM. The GI50 (NCI-H23; NCI-H23, read-out: Log10 GI50 (converted)) was 16.6 µM, the IC (TGI) (NCI-H23; NCI-H23, read-out: Log10 TGI (converted)) was 38.9 µM and the GI50 (NCI-H322M; [2]) was 21.9 µM. The IC (TGI) (NCI-H322M; [3]) was greater than 100 µM, the GI50 (COLO 205) was 0.288 µM and the GI50 (HCT-15; HCT-15, read-out: Log10 GI50 (converted)) was 27.5 µM. The IC (TGI) (HCT-15; HCT-15, read-out: Log10 TGI (converted)) was greater than 100 µM, the IC (TGI) (HT29) was greater than 100 µM and the GI50 (KM12; KM12, read-out: Log10 GI50 (converted)) was 26.9 µM. The IC (TGI) (KM12; KM12, read-out: Log10 TGI (converted)) was greater than 100 µM, the GI50 (SW-620; SW-620, read-out: Log10 GI50 (converted)) was 0.355 µM and the IC (TGI) (SW-620; SW-620, read-out: Log10 TGI (converted)) was greater than 100 µM. The GI50 (SF-268; SF-268, read-out: Log10 GI50 (converted)) was 23.4 µM, the IC (TGI) (SF-268; SF-268, read-out: Log10 TGI (converted)) was 64.6 µM and the GI50 (SF-539; SF-539, read-out: Log10 GI50 (converted)) was 12.3 µM. It also gave an IC (TGI) (SF-539; SF-539, read-out: Log10 TGI (converted)) of 57.5 µM, a GI50 (MALME-3M) greater than 100 µM and a GI50 (SK-MEL-2; SK-MEL-2, read-out: Log10 GI50 (converted)) greater than 100 µM. For the same compound, the IC (TGI) (SK-MEL-2; SK-MEL-2, read-out: Log10 TGI (converted)) was greater than 100 µM, the GI50 (SK-MEL-28; SK-MEL-28, read-out: Log10 GI50 (converted)) was 66.1 µM and the IC (TGI) (SK-MEL-28; SK-MEL-28, read-out: Log10 TGI (converted)) was greater than 100 µM. For the same compound, the GI50 (UACC-62; UACC-62, read-out: Log10 GI50 (converted)) was 0.0263 µM, the IC (TGI) (UACC-62; UACC-62, read-out: Log10 TGI (converted)) was 0.115 µM and the IC (TGI) (OVCAR-4) was greater than 100 µM. For the same compound, the GI50 (OVCAR-5; OVCAR-5, read-out: Log10 GI50 (converted)) was 0.0316 µM, the IC (TGI) (OVCAR-5; OVCAR-5, read-out: Log10 TGI (converted)) was 0.209 µM and the GI50 (SK-OV-3; SK-OV-3, read-out: Log10 GI50 (converted)) was 45.7 µM. The IC (TGI) (SK-OV-3; SK-OV-3, read-out: Log10 TGI (converted)) was greater than 100 µM, the GI50 (A498; A498, read-out: Log10 GI50 (converted)) was 0.0275 µM and the IC (TGI) (A498; A498, read-out: Log10 TGI (converted)) was 0.0832 µM. The GI50 (CAKI-1; CAKI-1, read-out: Log10 GI50 (converted)) was 0.0309 µM, the IC (TGI) (CAKI-1; CAKI-1, read-out: Log10 TGI (converted)) was 0.191 µM and the GI50 (RXF-393; RXF-393, read-out: Log10 GI50 (converted)) was 72.4 µM. It also gave an IC (TGI) (RXF-393; RXF-393, read-out: Log10 TGI (converted)) greater than 100 µM, a GI50 (SN12C; [2]) greater than 100 µM and an IC (TGI) (SN12C; [3]) greater than 100 µM. The GI50 (MDA-MB-231/ATCC; [2]) was 19.1 µM, the IC (TGI) (MDA-MB-231/ATCC; [3]) was 87.1 µM and the GI50 (T-47D; [2]) was 0.676 µM. For the same compound, the IC (TGI) (T-47D; [3]) was greater than 100 µM, the GI50 (NCI-H522; NCI-H522, read-out: Log10 GI50 (converted)) was 5.25 µM and the IC (TGI) (NCI-H522; NCI-H522, read-out: Log10 TGI) was 21.4 µM. For the same compound, the GI50 ([1]; Homo sapiens, read-out: Log10 GI50, MG_MID, mean over the panel (converted)) was 6.61 µM, the “Log10 LC50, MG_MID” value ([1]; mean over the panel) was −4.15 and the “Log10 TGI, MG_MID” value ([1]; mean over the panel) was −4.47. The “Log10 TGI, Delta” value ([1]; whole panel) was 2.61 and the “Log10 TGI, Range” value ([1]; whole panel) was 3.08.
